The source of these data is patent US20080004272A1, “Compositions and methods for modulating gated ion channels” (PainCeptor Pharma Corporation, priority 2006, published 2008).

In the first assay the target is T1, ASIC1a (Homo sapiens, UniProt P78348).
T1 sequence (P78348 1-528): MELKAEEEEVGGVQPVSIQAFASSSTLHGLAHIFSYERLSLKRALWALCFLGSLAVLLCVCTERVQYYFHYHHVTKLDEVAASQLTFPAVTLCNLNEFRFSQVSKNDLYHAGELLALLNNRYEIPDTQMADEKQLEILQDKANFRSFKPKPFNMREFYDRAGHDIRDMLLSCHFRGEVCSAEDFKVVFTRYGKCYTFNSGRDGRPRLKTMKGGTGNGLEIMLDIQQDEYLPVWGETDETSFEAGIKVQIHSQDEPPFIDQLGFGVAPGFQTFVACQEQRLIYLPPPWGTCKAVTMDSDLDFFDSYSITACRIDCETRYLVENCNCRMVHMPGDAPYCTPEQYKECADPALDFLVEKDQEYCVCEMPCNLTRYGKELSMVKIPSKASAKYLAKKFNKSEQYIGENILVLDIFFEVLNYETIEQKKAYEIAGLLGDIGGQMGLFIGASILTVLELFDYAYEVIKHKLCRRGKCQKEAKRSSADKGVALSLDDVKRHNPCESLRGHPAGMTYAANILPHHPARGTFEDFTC
Nature of the assay: Two-electrode voltage clamp in Xenopus laevis oocytes (Xo), acid-induced currents. Format: cell-based. On the set-up: expressed in transfected cells; host or cells: Xenopus laevis oocytes (nuclear microinjection of expression vector such as pcDNA3). The following applies: 30 μM, Xenopus oocytes; read-out: % inh. at 30 μM (Xo). The protocol:
Two-electrode voltage clamp electrophysiological assays in Xenopus laevis oocytes expressing gated ion channels are performed as follows:
Oocytes are surgically removed from adult Xenopus laevis and treated for 2 h at room temperature with 1 mg/ml type I collagenase (Sigma) in Barth's solution under mild agitation. Selected oocytes at stage IV-V are defolliculated manually before nuclear microinjection of 2.5-5 ng of a suitable expression vector, such as pcDNA3, comprising the nucleotide sequence encoding a gated ion channel subunit protein. In such an experiment, the oocytes express homomultimeric proton-gated ion channels on their surface. In an alternate experiment, one, two, three or more vectors comprising the coding sequences for distinct gated ion channel subunits are co-injected in the oocyte nuclei. In the latter case, oocytes express heteromultimeric proton-gated ion channels. For example, ASIC2a and/or ASIC3 subunits in pcDNA3 vector are co-injected at a 1:1 cDNA ratio. After 2-4 days of expression at 19° C. in Barth's solution containing […] gentamicin and 1.8 mM CaCl2, gated ion channels are activated by applying an acidic solution (pH<7) and currents are recorded in a two electrode voltage-clamp configuration, using an OC-725B amplifier (Warner Instruments). Currents are acquired and digitized at 500 Hz on an Apple Imac G3 computer with an A/D NB-MIO-16XL interface (National Instruments) and recorded traces are post-filtered at 100 Hz in Axograph (Axon Instruments) (Neher, E. and Sakmann, B. (1976) Nature 260:799-802). Once impaled with the microelectrodes, oocytes are continuously superfused at 10-12 ml/min with a modified Ringer's solution containing 97 mM NaCl, 2 mM KCl, 1.8 mM CaCl2, and 10 mM HEPES brought to pH 7.4 with NaOH (Control Ringer). Test Ringer solution is prepared by replacing HEPES with MES and adjusting the pH to the desired acidic value. Compounds of the present invention are prepared in both the Control and Test Ringer solutions and applied to oocytes at room temperature through a computer-controlled switching valve system. Osmolarity of all solutions is adjusted to 235 mOsm with choline chloride. Similarly, recordings can also be acquired in an automated multichannel oocytes system as the OpusExpress™ (Molecular Devices, Sunnyvale, USA).
FIGS. 1A and 2A illustrate the inhibitory effects of Compounds 203 and 206 on acid-induced activation of recombinant homomeric hASIC1a channels.
Turning to `CN1CCc2c(-c3ccccc3)cc3c(c2C1)NC(=O)/C3=N/OC1CCCCO1` (centres unmarked) [Compound 61], the inhibition at 30 µM is greater than 50%.

The assay is the same for the next values; noted with them: 50 μM, Xenopus oocytes; read-out: % inh. at 50 μM (Xo).
In the case of `CCN(CC)C(=O)c1cc(-c2cc(F)ccc2OC)cc(C)c1N` [Compound 188, 4-Amino-5′-fluoro-2′-methoxy-5-methyl-biphenyl-3-carboxylic acid diethylamide], the inhibition at 50 µM was less than 25%.

For `COc1ccc(F)cc1Nc1ccc([N+](=O)[O-])c2c1CCN(C)C2` [Compound 6], the inhibition at 50 µM is less than 25%.

In the case of `CN1CCc2c(-c3ccccc3)cc(C#N)c(Cl)c2C1` [Compound 176], the inhibition at 50 µM was less than 25%.

Turning to `CCOC(=O)N1CCc2c(Br)cc(C(=O)CCl)c(N)c2C1` [Compound 163], the inhibition at 50 µM is less than 25%.

As for `COc1ccc(F)cc1Oc1ccc([N+](=O)[O-])c2c1CCN(C)C2` [Compound 10], the inhibition at 50 µM is less than 25%.

Consider `CN1CCc2c(-c3ccccc3)cc3c(c2C1)NC(=O)C3=NNC(=O)c1ccc(O)cc1O` [Compound 113], for which the inhibition at 50 µM is less than 25%.

As for `CCOC(C)O/N=C1/C(=O)Nc2c1cc(-c1cc(F)ccc1OC)c1c2CN(C)CC1` (centres unmarked) [Compound 67], the inhibition at 50 µM was less than 25%.

For `CCOC(C)O/N=C1/C(=O)Nc2c1cc(-c1ccccc1)c1c2CN(C)CC1` (centres unmarked) [Compound 63], the inhibition at 50 µM was in the range of 30 to 50%.

For the compound `CN1CCc2c(-c3ccccc3)cc3c(c2C1)NC(=O)C3=NNCCO` [Compound 109], the inhibition at 50 µM is less than 25%.

On to `COc1ccc(F)cc1Nc1ccc(N)c2c1CCN(C)C2` [Compound 7], for which the inhibition at 50 µM was less than 25%.

Consider `COc1ccc(F)cc1Oc1ccc([N+](=O)[O-])c2cnccc12` [Compound 8], for which the inhibition at 50 µM is less than 25%.

For the compound `CNN=C1C(=O)Nc2c1cc(-c1ccccc1)c1c2CN(C)CC1` [Compound 108], the inhibition at 50 µM was less than 25%.

On to `CCN(CC)C(=O)c1cc(-c2cc(F)ccc2OC)cc(C)c1NC(=O)N(C)C` [Compound 191, 4-(3,3-Dimethyl-ureido)-5′-fluoro-2′-methoxy-5-methyl-biphenyl-3-carboxylic acid diethylamide], for which the inhibition at 50 µM was less than 25%.

Consider `COc1ccc(F)cc1-c1cc(/C(N)=N/O)c(N)c2c1CCN(C)C2` [Compound 208], for which the inhibition at 50 µM fell in the range of 20 to 40%.

For the compound `COc1ccc(F)cc1Oc1cc2c(c3c1CCN(C)C3)NC(=O)/C2=N/O` [Compound 12], the inhibition at 50 µM was in the range of 50 to 70%.

As to `CCOC(=O)CN(Cc1ccccc1)Cc1ccc(-c2ccccc2)c2c1CN(C(=O)OCC)CC2` [Compound 122], the inhibition at 50 µM fell in the range of 20 to 40%.

As for `CN1CCc2c(-c3ccccc3)cc3ncc(O)nc3c2C1` [Compound 101], the inhibition at 50 µM is less than 25%.

For `CN1CCc2c(-c3ccccc3)ccc(CNC(=O)c3ccccc3)c2C1` [Compound 116], the inhibition at 50 µM was less than 25%.

Regarding `CN1CCc2c(-c3ccccc3)cc(C(=O)NOCc3ccccc3)c(N)c2C1` [Compound 166], the inhibition at 50 µM is less than 25%.

With `CN1CCc2c(-c3ccccc3)cc3c(c2C1)NCC/C3=N/O` [Compound 96], the inhibition at 50 µM lay within 20 to 40%.

As to `CC(C)(C)OC(=O)N1CCc2c(-c3ccccc3)ccc(NCC(=O)O)c2C1` [Compound 165], the inhibition at 50 µM fell in the range of 20 to 40%.

Regarding `CCN1CCc2c(-c3ccccc3)cc3[nH]c(=O)[nH]c3c2C1` [Compound 222], the inhibition at 50 µM was less than 25%.

Turning to `CCN(CC)C(=O)c1cc(-c2cc(F)ccc2OC)cc(C)c1NC(=O)N1CCN(C(C)C)CC1` [Compound 193, 4-Isopropyl-piperazine-1-carboxylic acid (5-diethylcarbamoyl-5′-fluoro-2′-methoxy-3-methyl-biphenyl-4-yl)-amide], the inhibition at 50 µM is less than 25%.

The assay is the same for the next values; noted with them: Xenopus oocytes, table value; read-out: IC50 (Xo).
`CCOC(=O)CNc1ccc(-c2ccccc2)c2c1CN(C)CC2` [Compound 204, (2-Methyl-5-phenyl-1,2,3,4-tetrahydro-isoquinolin-8-ylamino)-acetic acid ethyl ester]: the IC50 is greater than 50 µM.

The next assay has as its target T1, ASIC1a. Kind of assay: Calcium imaging of MES-induced calcium response (FLIPR). Format: cell-based. On the set-up: host or cells: HEK293. The following applies: ASIC1a expressing HEK293 cells, MES-induced calcium response; read-out: IC50 (FLIPR). The method, then: […] Confluency of cells should be 80-90% on day of plating. Cells are rinsed with 10 ml of PBS and cells are re-suspended by addition of culture medium and trituration with a 25 ml pipette.
The cells are seeded at a density of approximately 1×10^6 cells/ml (100 μl/well) in black-walled, clear bottom, 96-well plates pre-treated with 10 mg/l poly-D-lysin (75 μl/well for ≧30 min). Plated cells are allowed to proliferate for 24 h before loading with dye.
Fluo-4/AM (1 mg, Molecular Probes) is dissolved in 912 μl DMSO. The Fluo-4/AM stock solution (1 mM) is diluted with culture medium to a final concentration of 2 μM (loading solution).
The culture medium is aspirated from the wells, and 50 μl of the Fluo-4/AM loading solution is added to each well. The cells are incubated at 37° C. for 30 min.
Following the second wash, 100 μl modified Assay Buffer is added to each well and the fluorescence is measured in FLIPR™ or FlexStation™ (Molecular Devices, USA), or any other suitable equipment known to the skilled in the art.
Temperature: Room temperature (20-22° C.)
First addition: 50 μl test solution at a rate of 30 μl/sec and a starting height of […]
Second addition: 50 μl MES solution (20 mM, 5 mM final concentration) at a rate of 35 μl/sec and a starting height of 150 μl.
Reading intervals: pre-incubation−10 sec×7 and 3 sec×3 antagonist phase−3 sec×7 and 10 sec×12
Addition plates (compound test plate and MES plate) are placed on the right and left positions in the FLIPR tray, respectively. Cell plates are placed in the middle position and the ASIC1a program is effectuated. FLIPR will then take the appropriate measurements in accordance with the interval settings above. Fluorescence obtained after stimulation is corrected for the mean basal fluorescence (in modified Assay Buffer).
The MES-induced peak calcium response, in the presence of test substance, is expressed relatively to the MES response alone. Test substances that block the MES-induced calcium response are re-tested in triplicates.
As for `CN1CCc2c(-c3cccc(F)c3F)cc3c(c2C1)NC(=O)/C3=N/O` [Compound 68], the IC50 is less than 20 µM.

Regarding `CCN1CCc2c(-c3ccccc3)cc3c(c2C1)N(CC(=O)OC)C(=O)C3=NO` [Compound 73, (8-Ethyl-3-hydroxyimino-2-oxo-5-phenyl-2,3,6,7,8,9-hexahydro-pyrrolo[3,2-h]isoquinolin-1-yl)-acetic acid methyl ester], the IC50 was less than 20 µM.

In the case of `CCOC(=O)c1ccc(-c2cc3c(c4c2CCN(C)C4)NC(=O)C3=NO)cc1` [Compound 1, 4-(3-hydroxyimino-8-methyl-2-oxo-2,3,6,7,8,9-hexahydro-1H-pyrrolo[3,2-h]isoquinolin-5-yl)-benzoic acid ethyl ester], the IC50 is greater than 70 µM.

For the compound `O=C(/C=N/O)Nc1ccc(-c2ccccc2)c2ccncc12` [Compound 152], the IC50 was greater than 70 µM.

Regarding `CN1CCc2c(-c3cccc(N)c3)cc3c(c2C1)NC(=O)/C3=N/O` [Compound 48], the concentration for half-maximal inhibition (IC50) was greater than 70 µM.

Turning to `COc1cccc(-c2cc3c(c4c2CCN(C)C4)NC(=O)/C3=N\O)c1` [Compound 43], the IC50 is less than 10 µM.

On to `CN1CCc2c(-c3cccc(Cl)c3)cc3c(c2C1)NC(=O)/C3=N\O` [Compound 35], for which the IC50 was less than 10 µM.

Consider `CC(=O)N1CCc2c(-c3ccc(Cl)cc3)cc3c(c2C1)NC(=O)C3=NO` [Compound 70, 8-Acetyl-5-(4-chloro-phenyl)-6,7,8,9-tetrahydro-1H-pyrrolo[3,2-h]isoquinoline-2,3-dione 3-oxime], for which the IC50 was greater than 70 µM.

In the case of `CN1CCc2c(-c3ccccc3OC(F)(F)F)cc3c(c2C1)NC(=O)/C3=N/O` [Compound 53], the IC50 was greater than 70 µM.

For the compound `CCc1ccccc1-c1cc2c(c3c1CCN(C)C3)NC(=O)/C2=N/O` [Compound 40], the IC50 was less than 10 µM.

With `COCCOc1ccccc1-c1cc2c(c3c1CCN(C)C3)NC(=O)/C2=N/O` [Compound 38], the IC50 was less than 10 µM.

Take `CC(=O)c1cccc(-c2cc3c(c4c2CCN(C)C4)NC(=O)/C3=N/O)c1` [Compound 47]: the IC50 was greater than 70 µM.

Consider `CN1CCc2c(-c3cccc4c3oc3ccccc34)cc3c(c2C1)NC(=O)/C3=N/O` [Compound 58], for which the IC50 is greater than 70 µM.

As a reminder, the IC50 is the midpoint of a concentration-inhibition curve.
